Experimental data published in patent publication US20240043860A1, “NOVEL HYDROXYPHENYLPYRUVATE DIOXYGENASE POLYPEPTIDES AND METHODS OF USE THEREOF” (Syngenta Crop Protection AG, priority 2020, published 2024).
Where “and” joins values, the source holds several entries; their conditions need not be identical. Equal entries are not always repeated. Where two headings read alike, the source gives them in different places.

What was measured:
[1] = tested on: transgenic tobacco plants expressing mutant HPPD SEQ ID NO: 122; assay: spray test, herbicidal damage scoring; type: in vivo; conditions: 7 days after treatment, 100=complete death, 0=no damage, one value per event
Method: DNA sequences that encode these polypeptides (optimized for tobacco or, optionally, codon optimized according to a target crop such as soybean) were prepared synthetically. Each sequence was designed to include a 5′ fusion with TMV omega 5′ leader sequence such that they are flanked at the 5′ end with XhoI and at the 3′ end with KpnI to facilitate direct cloning into a suitable binary vector for Agrobacterium-based plant transformation.
For example, a master plate of Agrobacterium tumefaciens containing the HPPD expressing the binary vector is used to inoculate 10 ml LB (L broth) containing 100 mg/l Rifampicin plus 50 mg/l Kanamycin using a single bacterial colony. This is incubated overnight at 28° C. shaking at 200 rpm. This entire overnight culture is used to inoculate a 50 ml volume of LB containing the same antibiotics. Again this is cultured overnight at 28° C. shaking at 200 rpm. The Agrobacterium cells are pelleted by centrifuging at 3000 rpm for 15 minutes and then resuspended in MS (Murashige and Skoog) medium containing 30 g/l sucrose, pH 5.9 to an OD […]=0.6. This suspension is dispensed in 25 ml aliquots into petri dishes.
(§1) Once rooted, plantlets are transferred from agar and potted into 50% peat, 50% John Innes Soil No. 3 or, for example, MetroMix® 380 soil (Sun Gro Horticulture, Bellevue, WA) with slow-release fertilizer in 3 inch round or 4 inch square pots and left regularly watered to establish for 8-12d in the glass house. Glass house conditions are about 24-27° C. day; 18-21° C. night and approximately a 14h (or longer in UK summer) photoperiod.
(§2) About 20-30 TO events are produced for a number of HPPD variant genes.
Single copy events amongst the Ti plant lines are identified by their 3:1 segregation ratio (with respect to kanamycin and/or herbicide) and by quantitative RT-PCR. Seed from the thus selected Ti tobacco (var. Samsun) lines are sown in 3 inch diameter pots containing 50% peat and 50% John Innes Soil No. 3. […] HPPD expression levels were monitored by Western analysis.
(§3) Tables 4.1-4.9 show the herbicidal damage scoring on transgenic tobacco plants 7 days after treatment. A score of 100=complete death and 0=no damage observed.

wild-type tobacco plants = assay: spray test, herbicidal damage scoring; type: in vivo; conditions: Table 4.1, 7 days after treatment, 100=complete death, 0=no damage, one value per plant/event
Method: as §1, §2, §3

[2] = tested on: HPPD variant AVESA V357 (SEQ ID NO: 53); assay: biochemical; type: biochemical, Avena sativa
Method: (§4) 25 ul of the overnight cultures were inoculated into fresh 96-deepwell block containing 1 ml Formedium Autoinduction Media (AIM). The AIM cultures were grown for 3h at 37° C. (900rpm) and then transferred to 20° C. overnight (900rpm) to allow protein expression. The overnight cultures were centrifuged and 500 ul of Cellytic B (Sigma Aldrich) was added to resuspend the cell pellets. The coupled HGO assay (Siehl et al, 2014) is used to generate IC50 values for the HPPD variants of interest.
(§5) E. coli BL21 (DE3) cells were transformed with a pET24a vector containing a C-terminally his-tagged Arabidopsis HGO gene, grown and induced overnight as described for the HPPD variants above. The cell pellet was resuspended in phosphate buffered saline at pH 7.4 containing 10% Glycerol, 1mm Tris[2-carboxyethyl] phosphine-HCl (TCEP) plus 30 mM Imidazole and lysed using lysozyme/benzonase. The extract was clarified by low speed centrifugation and purified in the same buffer down a 1 ml His Gravitrap column. The bound HGO was eluted in 0.25M imidazole and the fractions pooled and beaded into liquid nitrogen. All procedures apart from the centrifugation and beading steps were carried out under a nitrogen atmosphere.
(§6) The coupled HGO assay is carried out by adding 10 ul of HPPD extract to a 96-well plate and then adding 40 ul of reaction buffer (50 mM Bis Tris Propane, pH7.0, 25 mM sodium-L-ascorbate, 400μM mercaptoethanol, 50 μM Fe(II)SO4). The plates are left to incubate for 5 minutes on ice. […] 200 ul of HPP/HGO (197 μM hydroxyphenylpyruvic acid, 16 μl/ml Homogentisic Acid Oxidase in reaction buffer as described above) buffer is then added to the well and the reaction is regularly monitored (e.g. every 30 seconds-5 minutes) for absorbance at 330 nm for a given time period (e.g., for between 15-60 minutes). The data can then be used to calculate the IC50 value for each HPPD variant of interest.

[3] = target: HPPD variant AVESA V208 (SEQ ID NO: 14) (Avena sativa, UniProt A0ACD5V6K6, A327R/I340E/L359M/P271N/V218I); assay: biochemical; type: biochemical
Method: as §4, §5, §6

[4] = tested on: HPPD variant AVESA V349 (SEQ ID NO: 47); assay: biochemical; type: biochemical, Avena sativa
Method: as §4, §5, §6

[5] = target: HPPD variant AVESA V349 (SEQ ID NO: 47) (Avena sativa, UniProt A0ACD5V6K6, A327R/I340E/L359M/P271N/S304T/V218I); assay: biochemical; type: biochemical
Method: as §4, §5, §6

[6] = target: HPPD variant AVESA V357 (SEQ ID NO: 53) (Avena sativa, UniProt A0ACD5V6K6, A327R/I340E/L359M/P271N/R214G/S304T/V218I); assay: biochemical; type: biochemical
Method: as §4, §5, §6

[7] = tested on: HPPD variant ALOME V162 (SEQ ID NO: 126); assay: coupled HGO assay; type: biochemical, Alopecurus myosuroides
Method: DNA sequences (SEQ ID NOs: 65-118, 128, 130, 131, and 133), synthesized for expression in E. coli, by GeneWiz (USA) to encode HPPD variants (SEQ ID NOs: 5-58, 122, 124, 125 and 127) derived from either Avena sativa (SEQ ID NOs: 122, 124), Alopecurus myosuroides (SEQ ID NO: 126) or Apera spica-venti (SEQ ID NOs: 123, 125) were transformed into E coli BL21 (DE3) (New England Biolabs) and grown in 0.5 ml Terrific broth +50 ug/ml Kanamycin media in a 96-deepwell block overnight (37° C., 900rpm). 25 ul of the overnight cultures were inoculated into fresh 96-deepwell block containing 1 ml Formedium Autoinduction Media (AIM). The AIM cultures were grown for 3h at 37° C. (900rpm) and then transferred to 20° C. overnight (900rpm) to allow protein expression. The overnight cultures were centrifuged and 500 ul of Cellytic B (Sigma Aldrich) was added to resuspend the cell pellets. The coupled HGO assay (Siehl et al, 2014) is used to generate IC50 values for the HPPD variants of interest.
as §5, §6

[8] = AVESA V208, SEQ ID NO: 14, read-out: IC50
[9] = AVESA V349, SEQ ID NO: 47, read-out: IC50
[10] = AVESA V357, SEQ ID NO: 53, read-out: IC50

Sequence of HPPD variant AVESA V208 (SEQ ID NO: 14) (A0ACD5V6K6 entry or part of it V218I/P271N/A327R/I340E/L359M): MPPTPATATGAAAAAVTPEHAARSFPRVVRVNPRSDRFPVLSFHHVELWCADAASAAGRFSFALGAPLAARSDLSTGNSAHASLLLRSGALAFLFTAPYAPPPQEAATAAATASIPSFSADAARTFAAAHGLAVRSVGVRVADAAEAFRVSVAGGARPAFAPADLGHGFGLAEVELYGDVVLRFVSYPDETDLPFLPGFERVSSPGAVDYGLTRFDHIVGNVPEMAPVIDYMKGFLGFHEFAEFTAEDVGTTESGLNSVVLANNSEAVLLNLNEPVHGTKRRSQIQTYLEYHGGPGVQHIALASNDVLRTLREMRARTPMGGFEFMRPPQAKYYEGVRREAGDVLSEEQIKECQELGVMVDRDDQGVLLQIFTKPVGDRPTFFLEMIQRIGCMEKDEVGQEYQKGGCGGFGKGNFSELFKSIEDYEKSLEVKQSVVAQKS
Sequence of HPPD variant AVESA V349 (SEQ ID NO: 47) (Avena sativa, UniProt A0ACD5V6K6, A327R/I340E/L359M/P271N/S304T/V218I) (A0ACD5V6K6 entry or part of it V218I/P271N/S304T/A327R/I340E/L359M): as the sequence (A0ACD5V6K6 entry or part of it V218I/P271N/A327R/I340E/L359M) above, with S304T counted along it
Sequence of HPPD variant AVESA V357 (SEQ ID NO: 53) (Avena sativa, UniProt A0ACD5V6K6, A327R/I340E/L359M/P271N/R214G/S304T/V218I) (A0ACD5V6K6 entry or part of it R214G/V218I/P271N/S304T/A327R/I340E/L359M): as the sequence (A0ACD5V6K6 entry or part of it V218I/P271N/A327R/I340E/L359M) above, with R214G, S304T counted along it

## COc1ccc(-n2nc(C)cc(C(=O)C3C(=O)CCCC3=O)c2=O)cc1OC [Herbicide C, dioxopyritrione]
[1]; Table 3.1, plants expressing SEQ ID 122
  herbicidal damage scoring, Herbicide C 100 g/ha: 90 and 70 and 95 and 96
[1]; Table 4.4, SEQ ID NO: 122
  herbicidal damage scoring, Herbicide C (200 g/ha): 99 and 95 and 97 and 98
wild-type tobacco plants
  herbicidal damage scoring, Herbicide C 100 g/ha: 95 and 99 and 96
  herbicidal damage scoring, Herbicide C (200 g/ha): 95 and 97 and 98 and 96
[2]
  IC50 fold improvement over SEQ ID NO: 122: no improvement
[3]; [8]
  IC50: > 50 µM
[4]
  IC50 fold improvement compared to SEQ ID NO: 122: > 200 ×
[5]; [9]
  IC50: > 50 µM
[6]; [10]
  IC50: 0.28 µM
[7]
  IC50: 0.25 µM

## Cn1nnnc1NC(=O)c1ccc(C(F)(F)F)nc1-n1cncn1 [Herbicide D, N-(1-methyltetrazol-5-yl)-2-(1,2,4-triazol-1-yl)-6-(trifluoromethyl)pyridine-3-carboxamide]
[1]; Table 4.4, SEQ ID NO: 122
  herbicidal damage scoring, Herbicide D (2000 g/ha): 80 and 70 and 65 and 75 and 85 and 60
wild-type tobacco plants
  herbicidal damage scoring, Herbicide D (2000 g/ha): 99 and 96 and 97 and 95
[2]
  IC50 fold improvement over SEQ ID NO: 122: 36 ×
[3]
  IC50: 182 µM
[4]
  IC50 fold improvement compared to SEQ ID NO: 122: 29 ×
[5]
  IC50: 197 µM
[6]
  IC50: 243 µM
[7]
  IC50: 10.5 µM

## bicyclopyrone
[1]; Table 4.4, SEQ ID NO: 122
  herbicidal damage scoring, Bicyclopyrone (800 g/ha): 60 and 50 and 55 and 65 and 35 and 70 and 40
wild-type tobacco plants
  herbicidal damage scoring, Bicyclopyrone (800 g/ha): 95
[2]
  IC50 fold improvement over SEQ ID NO: 122: 110 ×
[3]; [8]
  IC50: 39.3 µM
[4]
  IC50 fold improvement compared to SEQ ID NO: 122: 27 ×
[5]; [9]
  IC50: 10.2 µM
[6]; [10]
  IC50: 42.1 µM
[7]
  IC50: 0.53 µM
